Measurements: US20220144809A1, “COMPOUNDS AND METHODS FOR THE TARGETED DEGRADATION OF ANDROGEN RECEPTOR AND ASSOCIATED METHODS OF USE” (Arvinas Operations, Inc., priority 2020, published 2022)

Test system: Androgen Receptor (AR)
Test: Androgen Receptor ELISA assay (AR degradation in LNCaP and/or VCaP cells)
Assay type: cell-based
Conditions: degradation of AR, 5 hours incubation, R1881 in media
Method: Assay for Testing AR Degradation Driven by Compounds of the Present Disclosure.
Androgen Receptor ELISA Assay. Compounds were evaluated in the following assay in LNCaP and/or VCaP cells utilizing similar protocols. The protocols used with VCaP cells are described below. The androgen receptor ELISA assay was performed using PathScan AR Sandwich ELISA (Cell Signaling Catalog#12850) according to the following assay steps.
VCaP cells were seeded at 40,000 cells/well at a volume of 100 μL/well in VCaP assay medium [Phenol red free RPMI (Gibco Cat#11835-030); 5% Charcoal Stripped (Dextran treated) FBS (Omega Scientific, Cat#FB-04); 1% penstrep (Life Technologies, Gibco Cat#: 10378-016)] in Corning 3904 plates. The cells were grown for a minimum of 3 days.
First, cells were dosed with compounds diluted in […]—in a polypropylene plate avoiding the use of outer columns according to the following protocol: (1)(i) 1000× stock plate in DMSO was made; (ii) 20 mM stock diluted 1/6.7 with DMSO (5 μL+28.3 μL DMSO)=3 mM into row H; (iii) serial dilutions in ½ log doses (10 μL of bifunctional compound+20 μL DMSO) was performed from row H towards row B with row A being reserved for DMSO; (iv) 7 doses total (final concentration in this 1000× plate will be 3 mM, 1 mM, 333 μM, 111 μM, etc). (2)(i) A 10× stock plate in media was made; (ii) 2.5 μL of the 1000× stock was trasnferred to a new 10× stock plate (use 12 channel pipet, start at A (DMSO control) work thru H. When 247.5 μL of media was added to this plate, it served as a 10× stock; (iii) made media+1 nM R1881 for making 10× stock plate; (iv) added 247.5 μL of media with 1 nM R1881 to each well of the 10× stock plate, mix.
Then 22 μL of 10× stock was added to cells and incubated for 5 hours. 1× Cell Signaling Cell lysis buffer was made (Catalogue #9803; comes with the kit) to have […], and was kept on ice. Media was aspirated, and 100 μL 1× cell lysis buffer/well was added. The cells were placed on a shaker located in a cold room for 10 minutes and shaken at speed 7. The lysate mixture was mix and 20 μL transferred to 100 μl of Diluent in ELISA plate (0.15 μg/ml-0.075 μg/ml). The lysate-diluent mixture was store at 4° C. overnight on a shaker located in a cold room at speed 5 (gentle swirl).
The lysate-diluent mixture was shaken for 30 minutes at 37° C. The mouse AR antibody, anti-mouse antibody, TMB, and STOP solution were allowed to come to room temperature. The 1×ELISA buffer included in kit was made and loaded in reservoir. Media from the plate was discarded, the ELISA plate was tapped hard on paper towel, and washed 4×200 μl ELISA wash buffer using a plate washer for the first three washes and an eight channel aspirator for the fourth wash to more thoroughly aspirate the solution.
Next, 100 μL/well of mouse AR detection Ab was added; the plate was covered and shaken at 37° C. for 1 hour; media was discarded from the plates, the plates tapped on a paper towel and washed four times with 200 μL ELISA wash buffer with a plate washer for the first three washes and an eight channel aspirator for the fourth wash; 100 μL/well of anti-mouse—HRP conjugated Ab (comes with the kit) was added; the plates wascover and shaken at 37° C. for 30 minutes; the TMB reagent was allowed to come to room temperature; the media from the plate was discarded, the plates tapped on paper towel, and washed four times with 200 μL ELISA wash buffer with a plate washer for the first three washes and an eight channel aspirator for the fourth wash; plates were tapped on paper towl; 100 μL TMB was added to each well and the plate shaken for 2 minutes—while watching color. STOP solution (100 μL) was added when light blue color developed. The plates were shake and read at 450 nm.
Data was analyzed and plotted using GraphPad Prism software. Exemplary compounds of Table 1 were assayed and the data shown below in Table 2. […]

With `CC(C)N(CC1CCN(Cc2ccc(-n3c(=O)n(-c4ccc(C#N)c(C(F)(F)F)c4)c4ccccc43)cc2)CC1)[C@H]1C[C@H](Oc2ccc3c(c2)C(=O)N(C2CCC(=O)NC2=O)C3=O)C1` (stereo partly shown) [Compound 15, 4-(3-(4-((4-((((1r,3r)-3-((2-(2,6-dioxopiperidin-3-yl)-1,3-dioxoisoindolin-5-yl)oxy)cyclobutyl)(isopropyl)amino)methyl)piperidin-1-yl)methyl)phenyl)-2-oxo-2,3-dihydro-1H-benzo[d]imidazol-1-yl)-2-(trifluoromethyl)benzonitrile] as the compound, how does the DC50 read?
The DC50 was 0.001 to 0.01 µM.

What about the “Dmax Code” value of the same compound?
Its value is “C (C<50)”.

Which results are given for `CCN(CC1CCN(CCOc2ccc(CN3C(=S)N(c4ccc(C#N)c(C(F)(F)F)c4)C(=O)C3(C)C)cn2)CC1)[C@H]1C[C@H](Oc2ccc3c(c2)C(=O)N(C2CCC(=O)NC2=O)C3=O)C1` (stereo partly shown) [Compound 16, 4-(3-((6-(2-(4-((((1r,3r)-3-((2-(2,6-dioxopiperidin-3-yl)-1,3-dioxoisoindolin-5-yl)oxy)cyclobutyl)(ethyl)amino)methyl)piperidin-1-yl)ethoxy)pyridin-3-yl)methyl)-4,4-dimethyl-5-oxo-2-thioxoimidazolidin-1-yl)-2-(trifluoromethyl)benzonitrile]?
DC50: 0.001 to 0.01 µM; Dmax Code: C (C<50)

Which DC50 does the source give for `CC(C)N(CC1CCN(c2ccc(CCn3c(=O)n(-c4ccc(C#N)c(C(F)(F)F)c4)c4ccccc43)cc2)CC1)[C@H]1C[C@H](Oc2ccc3c(c2)C(=O)N(C2CCC(=O)NC2=O)C3=O)C1` (stereo partly shown) [Compound 17, 4-(3-(4-(4-((((1r,3r)-3-((2-(2,6-dioxopiperidin-3-yl)-1,3-dioxoisoindolin-5-yl)oxy)cyclobutyl)(isopropyl)amino)methyl)piperidin-1-yl)phenethyl)-2-oxo-2,3-dihydro-1H-benzo[d]imidazol-1-yl)-2-(trifluoromethyl)benzonitrile] here?
The DC50 was 0.01 to 0.1 µM.

What about the “Dmax Code” value of the same compound?
The value was “C (C<50)”.

What does the source list for `Cc1c(C#N)c(-c2ccc(C#N)cc2)c(C)n1Cc1ccc(N2CCC(CN3CCN(c4ccc5c(c4)C(=O)N(C4CCC(=O)NC4=O)C5=O)CC3)CC2)cc1` (stereo not shown) [Compound 18, 4-(4-cyanophenyl)-1-(4-(4-((4-(2-(2,6-dioxopiperidin-3-yl)-1,3-dioxoisoindolin-5-yl)piperazin-1-yl)methyl)piperidin-1-yl)benzyl)-2,5-dimethyl-1H-pyrrole-3-carbonitrile]?
DC50: ≥ 0.1 µM; Dmax Code: C (C<50)

Which DC50 does the source give for `Cc1c(C#N)c(-c2ccc(C#N)cc2)c(C)n1Cc1ccc(OCCCN2CCC(CN3CCN(c4ccc5c(c4)C(=O)N(C4CCC(=O)NC4=O)C5=O)CC3)CC2)cc1` (stereo not shown) [Compound 19, 4-(4-cyanophenyl)-1-(4-(3-(4-((4-(2-(2,6-dioxopiperidin-3-yl)-1,3-dioxoisoindolin-5-yl)piperazin-1-yl)methyl)piperidin-1-yl)propoxy)benzyl)-2,5-dimethyl-1H-pyrrole-3-carbonitrile] here?
Its DC50 is ≥ 0.1 µM.

What about the “Dmax Code” value of the same compound?
The value was “C (C<50)”.

For `Cc1c(C#N)c(-c2ccc(C#N)cc2)c(C)n1Cc1ccc(OCCN2CCC(CN3CCN(c4ccc5c(c4)C(=O)N(C4CCC(=O)NC4=O)C5=O)CC3)CC2)cc1` (stereo not shown) [Compound 20, 4-(4-cyanophenyl)-1-(4-(2-(4-((4-(2-(2,6-dioxopiperidin-3-yl)-1,3-dioxoisoindolin-5-yl)piperazin-1-yl)methyl)piperidin-1-yl)ethoxy)benzyl)-2,5-dimethyl-1H-pyrrole-3-carbonitrile], which DC50 is on record?
The DC50 was ≥ 0.1 µM.

What about the “Dmax Code” value of the same compound?
The value was “C (C<50)”.

Which results are given for `Cc1c(C#N)c(-c2ccc(C#N)cc2)c(C)n1Cc1ccc(OCCOCCOCCN2CCC(CN3CCN(c4ccc5c(c4)C(=O)N(C4CCC(=O)NC4=O)C5=O)CC3)CC2)cc1` (stereo not shown) [Compound 21, 4-(4-cyanophenyl)-1-(4-(2-(2-(2-(4-((4-(2-(2,6-dioxopiperidin-3-yl)-1,3-dioxoisoindolin-5-yl)piperazin-1-yl)methyl)piperidin-1-yl)ethoxy)ethoxy)ethoxy)benzyl)-2,5-dimethyl-1H-pyrrole-3-carbonitrile]?
DC50: ≥ 0.1 µM; Dmax Code: C (C<50)

`Cc1c(C#N)c(-c2ccc(C#N)cc2)c(C)n1Cc1ccc(OCCOCCN2CCC(CN3CCN(c4ccc5c(c4)C(=O)N(C4CCC(=O)NC4=O)C5=O)CC3)CC2)cc1` (stereo not shown) [Compound 22, 4-(4-cyanophenyl)-1-(4-(2-(2-(4-((4-(2-(2,6-dioxopiperidin-3-yl)-1,3-dioxoisoindolin-5-yl)piperazin-1-yl)methyl)piperidin-1-yl)ethoxy)ethoxy)benzyl)-2,5-dimethyl-1H-pyrrole-3-carbonitrile] was tested. Which DC50 did it give?
Its DC50 is ≥ 0.1 µM.

What about the “Dmax Code” value of the same compound?
Its value is “C (C<50)”.

Which DC50 does the source give for `CC(C)N(CC1CCN(CCCn2c(=O)n(-c3ccc(C#N)c(C(F)(F)F)c3)c3ccccc32)CC1)[C@H]1C[C@H](Oc2ccc3c(c2)C(=O)N(C2CCC(=O)NC2=O)C3=O)C1` (stereo partly shown) [Compound 23, 4-(3-(3-(4-((((1r,3r)-3-((2-(2,6-dioxopiperidin-3-yl)-1,3-dioxoisoindolin-5-yl)oxy)cyclobutyl)(isopropyl)amino)methyl)piperidin-1-yl)propyl)-2-oxo-2,3-dihydro-1H-benzo[d]imidazol-1-yl)-2-(trifluoromethyl)benzonitrile] here?
The DC50 was ≥ 0.1 µM.

What about the “Dmax Code” value of the same compound?
Its value is “C (C<50)”.

How did the DC50 turn out when `CC(C)N(CC1CCN(CCCCn2c(=O)n(-c3ccc(C#N)c(C(F)(F)F)c3)c3ccccc32)CC1)[C@H]1C[C@H](Oc2ccc3c(c2)C(=O)N(C2CCC(=O)NC2=O)C3=O)C1` (stereo partly shown) [Compound 24, 4-(3-(4-(4-((((1r,3r)-3-((2-(2,6-dioxopiperidin-3-yl)-1,3-dioxoisoindolin-5-yl)oxy)cyclobutyl)(isopropyl)amino)methyl)piperidin-1-yl)butyl)-2-oxo-2,3-dihydro-1H-benzo[d]imidazol-1-yl)-2-(trifluoromethyl)benzonitrile] was run?
Its DC50 is ≥ 0.1 µM.

What about the “Dmax Code” value of the same compound?
The value was “C (C<50)”.

How did the DC50 turn out when `CC(C)N(CC1CCN(c2ccc(Cn3c(=O)n(-c4ccc(C#N)c(C(F)(F)F)c4)c4ccccc43)cc2)CC1)[C@H]1C[C@H](Oc2ccc3c(c2)C(=O)N(C2CCC(=O)NC2=O)C3=O)C1` (stereo partly shown) [Compound 25, 4-(3-(4-(4-((((1r,3r)-3-((2-(2,6-dioxopiperidin-3-yl)-1,3-dioxoisoindolin-5-yl)oxy)cyclobutyl)(isopropyl)amino)methyl)piperidin-1-yl)benzyl)-2-oxo-2,3-dihydro-1H-benzo[d]imidazol-1-yl)-2-(trifluoromethyl)benzonitrile] was run?
The DC50 was ≥ 0.1 µM.

And the “Dmax Code” value?
The value was “C (C<50)”.
